One assay deals with SYK (Homo sapiens, UniProt P43405). The assay can be described thus: SYK flash plate assay. Type of assay: biochemical. The settings on record: class symbols; read-out: IC50 SYK (enzyme assay). The protocol: The kinase assay is performed either as 384-well Flashplate assay (for e.g. Topcount measurement) or as 384-well Image-Flashplate assay (for LEADseeker measurement). • 2.5 nM SYK, 400 nM Biotin-Aha-Aha-KEDPDYEWPSAKK • and 10 μM ATP (spiked with 0.3 μCi 33P-ATP/well) are incubated in a total volume of 50 μl (60 mM Hepes, 10 mM MgCl2, 1.2 mM Dithiothreitol, 0.02% Brij35, 0.1% BSA, pH 7.5) with or without test compound for 1 hours at 30° C. The reaction is stopped with 25 μl 200 mM EDTA. After 30 Min at 30° C. the liquid is removed and each well washed thrice with 100 μl 0.9% sodium chloride solution. Non-specific reaction is determined in presence of 0.1 μM Staurosporine. Radioactivity is measured with Topcount (when using Flashplates) or with LEADseeker (when using Image-Flashplates) respectively. Results (e.g. IC50-values) are calculated with program tools provided by the IT-department (e.g. Symyx Assay Explorer, Genedata Screener). In vivo Assays CIA

Another assay concerns the target GCN2 (Homo sapiens, UniProt Q9P2K8). The assay can be described thus: GCN2 enzyme assay (TR-FRET Lanthascreen, GFP-eIF2alpha substrate). Type of assay: biochemical. The settings on record: class symbols. Here is the method:
APCI-MS (atmospheric pressure chemical ionisation-mass spectrometry) (M+H)^+. • Mass spectrometry (MS): EI (electron impact ionisation) M^+ • FAB (fast atom bombardment) (M+H)^+ • ESI (electrospray ionisation) (M+H)^+ • m.p.=melting point • LCMS Method: • Column: ZORBAX SB-C8 30*4.6 mm, 3.5 um • Mobile Phase A: Water+0.03% TFA • Mobile Phase B: ACN+0.05% TFA • Gradient: 5-95% B in 2.5 minutes • Flow: 2.0 mL/min • Wavelength: UV1:220 nm, UV2:254 nm • Mass Scan: 100-900 Da GCN2: Assay Principle & Conditions
This assay can quantificate the activity of the serin kinase GCN2 (general control non-derepressible-2).
This kinase is involved in the stress metabolism of cells. It is activated upon starvation (amino acid depletion). Its natural substrate is eIF2a (eukaryotic initiation factor 2 alpha subunit), a translation factor, which gets activated (phosphorylated) by GCN2 in case of an amino acid bottleneck in the cells. This in turn leads to a halt of the protein synthesis. Inhibition of GCN2 results in stopping this mechanism: The cell can not stop protein production upon “starvation” stress.
The assay is run in two steps: the enzymatic reaction and the detection step. In the first step GCN2 is incubated with 10 μM ATP and 80 nM of the GFP-labelled substrate eIF2alpha at room temperature.
The enzymatic reaction is stopped by addition of EDTA. The amount of phosphorylated eIF2alpha is determined by TR-FRET (Lanthascreen): A complex is formed consisting of antibody and GFP labelled phospho-eIF2a, which allows a FRET upon exitation at 340 nm.
The GCN2-activity is directly proportional to the ratio of fluorescence units at the emission wavelength 520 nm (phosphopeptide-sensitive wavelength=emission of GFP) to the units at 495 nm (reference wavelength=emission of Terbium-chelate).
Final Concentrations in the Enzymatic Reaction
In general terms: Time-resolved FRET reads energy transfer from a long-lived donor to a nearby acceptor.

As usually defined, the pIC50 is the negative decadic logarithm of the IC50, by convention in mol/L.

pIC50: −log10 of the molar value.

GCN2, sequence (Q9P2K8 whole entry, species assumed): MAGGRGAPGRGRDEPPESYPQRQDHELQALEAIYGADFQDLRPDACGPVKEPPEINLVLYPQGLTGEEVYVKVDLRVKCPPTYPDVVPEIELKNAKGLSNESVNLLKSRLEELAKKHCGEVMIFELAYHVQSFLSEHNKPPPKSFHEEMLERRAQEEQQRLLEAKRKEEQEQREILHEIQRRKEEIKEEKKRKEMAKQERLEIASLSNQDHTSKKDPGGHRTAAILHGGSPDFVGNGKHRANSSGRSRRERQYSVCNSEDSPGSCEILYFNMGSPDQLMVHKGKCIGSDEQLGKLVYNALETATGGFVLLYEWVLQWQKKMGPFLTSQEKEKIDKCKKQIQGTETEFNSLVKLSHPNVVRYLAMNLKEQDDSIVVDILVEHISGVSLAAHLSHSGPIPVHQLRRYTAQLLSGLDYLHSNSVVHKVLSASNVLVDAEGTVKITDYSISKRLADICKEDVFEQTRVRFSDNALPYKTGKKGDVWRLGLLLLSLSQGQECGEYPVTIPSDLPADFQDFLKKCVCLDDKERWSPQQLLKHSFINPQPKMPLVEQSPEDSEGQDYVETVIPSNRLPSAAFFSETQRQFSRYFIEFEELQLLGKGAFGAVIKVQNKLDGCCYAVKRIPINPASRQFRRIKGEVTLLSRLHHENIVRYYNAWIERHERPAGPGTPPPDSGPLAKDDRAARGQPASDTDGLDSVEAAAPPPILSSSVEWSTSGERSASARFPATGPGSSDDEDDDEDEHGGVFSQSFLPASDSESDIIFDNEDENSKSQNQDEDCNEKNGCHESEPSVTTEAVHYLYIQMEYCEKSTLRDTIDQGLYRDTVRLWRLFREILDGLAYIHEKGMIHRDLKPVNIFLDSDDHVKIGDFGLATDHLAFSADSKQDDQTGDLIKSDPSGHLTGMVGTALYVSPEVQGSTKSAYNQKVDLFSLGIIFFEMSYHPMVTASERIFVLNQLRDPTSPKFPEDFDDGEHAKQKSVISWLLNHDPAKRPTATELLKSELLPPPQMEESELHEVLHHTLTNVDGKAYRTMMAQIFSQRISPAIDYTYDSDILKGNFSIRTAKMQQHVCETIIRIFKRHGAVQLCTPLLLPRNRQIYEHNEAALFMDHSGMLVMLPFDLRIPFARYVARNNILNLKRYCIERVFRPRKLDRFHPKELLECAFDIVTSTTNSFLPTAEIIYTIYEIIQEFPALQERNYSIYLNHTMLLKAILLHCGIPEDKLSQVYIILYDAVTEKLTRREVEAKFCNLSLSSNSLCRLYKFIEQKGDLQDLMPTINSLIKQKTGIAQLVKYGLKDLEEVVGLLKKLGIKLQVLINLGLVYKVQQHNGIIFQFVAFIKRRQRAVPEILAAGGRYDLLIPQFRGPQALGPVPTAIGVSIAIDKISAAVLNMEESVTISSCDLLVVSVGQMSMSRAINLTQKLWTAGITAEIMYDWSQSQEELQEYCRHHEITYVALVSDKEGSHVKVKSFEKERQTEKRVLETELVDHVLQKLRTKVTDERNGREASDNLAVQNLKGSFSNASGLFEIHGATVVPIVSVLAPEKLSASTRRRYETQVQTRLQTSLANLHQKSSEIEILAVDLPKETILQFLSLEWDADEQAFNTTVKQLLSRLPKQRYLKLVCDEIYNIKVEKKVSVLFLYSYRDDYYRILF

For `CC12Oc3ccc(cc3NC1=O)Nc1nc(ncc1F)Nc1ccc(cc1)OCCCC(=O)NCCCNC2=O` (stereo not drawn) [Compound B16], the pIC50 at SYK is 5.52 to 6.52.

As for `CN1CC(=O)Nc2cccc(c2)Nc2ncc(F)c(n2)Nc2ccc3c(c2)NC(=O)[C@@](C)(O3)C1=O` (single isomer, unassigned) [Compound 16], the negative logarithm of the IC50 (pIC50) on SYK is 5.52 to 6.52; on GCN2, 4.30 to 5.52.

On to `COc1ccc2cc1Nc1ncc(F)c(n1)Nc1ccc3c(c1)NC(=O)C(C)(O3)C(=O)NCCNC2=O` (stereo not drawn) [Compound B19], for which the pIC50 at SYK is 5.52 to 6.52.

Regarding `CN1CC(=O)Nc2cccc(c2)Nc2ncc(F)c(n2)Nc2ccc3c(c2)NC(=O)[C@](C)(O3)C1=O` (single isomer, unassigned) [Compound 17], the values for the negative logarithm of the IC50 (pIC50) at SYK and against GCN2 were above 6.52 and 5.52 to 6.52, respectively.

Turning to `CN1CC(=O)N(C)c2cccc(c2)Nc2ncc(F)c(n2)Nc2ccc3c(c2)NC(=O)C(C)(O3)C1=O` (stereo not drawn) [Compound B1], the pIC50 on SYK is 4.30 to 5.52.

For the compound `CC12Oc3ccc(cc3NC1=O)Nc1nc(ncc1F)Nc1cccc(c1)CCNC2=O` (stereo not drawn) [Compound 12], the pIC50 at SYK and at GCN2 was 4.30 to 5.52 throughout.

On to `COc1cc2ccc1OCCCCNC(=O)C1(C)Oc3ccc(cc3NC1=O)Nc1nc(ncc1F)N2` (stereo not drawn) [Compound B12], for which the pIC50 on SYK is 4.30 to 5.52; at GCN2, 5.52 to 6.52.

As for `COc1cc2cc(c1)NC(=O)CN(C)C(=O)C1(C)Oc3ccc(cc3NC1=O)Nc1nc(ncc1F)C2` (stereo not drawn) [Compound B2], at SYK, the pIC50 was above 6.52.

Turning to `COc1cc2ccc1OCCCCNC(=O)[C@@H](Cc1ccccc1)NC(=O)[C@]1(C)Oc3ccc(cc3NC1=O)Nc1nc(ncc1F)N2` [Compound B20], the pIC50 is 5.52 to 6.52 at SYK and 4.30 to 5.52 on GCN2.

As for `COc1cc2ccc1OCCCNC(=O)C1(C)Oc3ccc(cc3NC1=O)Nc1nc(ncc1F)N2` (stereo not drawn) [Compound B11], the negative-log IC50 (pIC50) is 4.30 to 5.52 on SYK and 5.52 to 6.52 at GCN2.

Take `CC12Oc3ccc(cc3NC1=O)Nc1nc(ncc1F)Nc1cccc(c1)NC(=O)N1CCC[C@H]1C(=O)NCCCNC2=O` (stereo partly drawn) [Compound B17]: on SYK, the negative logarithm of the IC50 (pIC50) was 4.30 to 5.52.

As for `CC12CCOC(=O)Nc3cccc(c3)Nc3ncc(F)c(n3)Nc3ccc(c(c3)NC1=O)O2` (stereo not drawn) [Compound 6], the pIC50 on SYK is above 6.52.

Turning to `CC12Oc3ccc(cc3NC1=O)Nc1nc(ncc1F)Nc1ccc(cc1)OCCC(=O)NCCCNC2=O` (stereo not drawn) [Compound B15], the negative logarithm of the IC50 (pIC50) at SYK was 5.52 to 6.52.

Take `COc1cc2cc(c1)C(=O)NCCNC(=O)C1(C)Oc3ccc(cc3NC1=O)Nc1nc(ncc1F)N2` (stereo not drawn) [Compound B23]: the pIC50 on SYK and against GCN2 was 5.52 to 6.52 in each case.

Take `CN1CC(=O)Nc2cccc(c2)Nc2ncc(F)c(n2)Nc2ccc3c(c2)NC(=O)C(C)(O3)C1=O` (racemic) [Compound 15]: the negative-log IC50 (pIC50) on SYK was above 6.52; at GCN2, 5.52 to 6.52.

As for `COc1cc2ccc1OCCNC(=O)[C@H](Cc1ccccc1)NC(=O)[C@]1(C)Oc3ccc(cc3NC1=O)Nc1nc(ncc1F)N2` [Compound B25], the pIC50 at SYK is 5.52 to 6.52.

As for `CC12CCOC(=O)NCc3cccc(c3)Nc3ncc(F)c(n3)Nc3ccc(c(c3)NC1=O)O2` (stereo not drawn) [Compound 9], the pIC50 on SYK is above 6.52.

For the compound `COc1cc2c3cc1Nc1ncc(F)c(n1)Nc1ccc4c(c1)NC(=O)C(C)(O4)C(=O)NCCN(C)CC(=O)N3CC2` (stereo not drawn) [Compound B7], the pIC50 on SYK is 4.30 to 5.52.

Compound `CC12Oc3ccc(cc3NC1=O)Nc1nc(ncc1F)Nc1cccc(c1)S(=O)(=O)NCCC(=O)NCCCNC2=O` (stereo not drawn) [Compound B18] gave a pIC50 on GCN2 of 5.52 to 6.52.

The record behind these values is patent US9073944B2, “Cyclic diaminopyrimidine derivatives” (Merck Patent GmbH, priority 2012, dated 2015).
